Values quoted from earlier work in patent US20200132604A1, “METHODS OF DETERMINING PROTEIN STRUCTURE USING TWO-PHOTON FLUORESCENCE MEASUREMENTS” (Biodesy, Inc., priority 2017, published 2020).

Key:
[1] = molecular target: monomeric forms of avidin or streptavidin; settings: read-out: biotin-binding affinity
[2] = system: human IgG-Fc; settings: Sugita, et al. (2013)

Row | Molecule | Kd [1] | affinity [2]
1 | O=C(O)CCCC[C@@H]1SC[C@@H]2NC(=O)N[C@@H]21 [biotin] | ~10 nM | –
2 | NARKFYKG | – | 6.5e+06 M⁻¹
3 | NKFRGKYK | – | 8.9e+06 M⁻¹
